Assay [1] has as its target T1, HMG-CoA reductase (Rattus norvegicus, UniProt P51639).
T1 construct: partially purified HMG-COA reductase from rat liver; from tissue; host or cells: rat liver (partially purified enzyme)
T1 sequence (P51639 1-887): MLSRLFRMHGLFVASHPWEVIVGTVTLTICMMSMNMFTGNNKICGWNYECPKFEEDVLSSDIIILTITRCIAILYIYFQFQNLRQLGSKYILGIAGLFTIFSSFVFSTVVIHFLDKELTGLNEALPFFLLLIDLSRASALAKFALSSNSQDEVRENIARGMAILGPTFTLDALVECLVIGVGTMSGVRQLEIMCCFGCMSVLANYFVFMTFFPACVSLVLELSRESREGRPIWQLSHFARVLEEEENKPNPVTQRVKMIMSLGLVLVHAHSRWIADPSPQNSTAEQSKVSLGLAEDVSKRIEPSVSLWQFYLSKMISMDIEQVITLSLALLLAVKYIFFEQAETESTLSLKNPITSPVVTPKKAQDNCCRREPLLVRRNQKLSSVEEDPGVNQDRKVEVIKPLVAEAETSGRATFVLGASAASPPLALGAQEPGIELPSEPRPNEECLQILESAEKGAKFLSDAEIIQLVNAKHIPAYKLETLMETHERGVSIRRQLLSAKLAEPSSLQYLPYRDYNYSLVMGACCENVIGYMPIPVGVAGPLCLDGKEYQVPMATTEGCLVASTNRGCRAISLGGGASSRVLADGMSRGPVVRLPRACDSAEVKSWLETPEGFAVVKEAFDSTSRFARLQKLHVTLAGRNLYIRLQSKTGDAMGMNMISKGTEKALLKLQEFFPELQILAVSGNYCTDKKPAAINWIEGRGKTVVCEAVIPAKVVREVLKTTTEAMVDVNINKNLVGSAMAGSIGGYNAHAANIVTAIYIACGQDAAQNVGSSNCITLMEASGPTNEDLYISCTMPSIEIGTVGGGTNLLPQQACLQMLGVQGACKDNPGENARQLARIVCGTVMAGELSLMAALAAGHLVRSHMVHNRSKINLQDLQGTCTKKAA
Nature of the assay: HMG-CoA reductase determination in vitro on partially purified HMG-CoA reductase from rat liver. It is filed as biochemical. To be noted: 10^-5 M; variation 10%.

Assay [2] deals with colon carcinoma cells, HT 29. Nature of the assay: MTT assay, inhibition of cell proliferation, HT 29. The class given is cell-based. To be noted: Homo sapiens, 72 hours incubation. On the procedure: (§1) The reduced inhibitory effect on cell proliferation was tested on exponentially growing animal (mouse leukemia cells, L 1210) and human (bronchial carcinoma cells, A 549; colon carcinoma cells, HT 29) tumor cells. This entailed the tumor cells being incubated in RPMI standard medium with various concentrations of the test substances for 72 hours. Cell incubations only in fresh medium served as control. Incubations were set up in quadruplet. […] After incubation for a further 7 to 24 hours, the cell supernatant was carefully removed and the formazan dye in the cells was solubilized by adding DMSO and measured quantitatively by photometry at 492 nm. The ratio of the extinction of the substance incubations to the control incubation was quantified. The coefficient of variation in each incubation series was less than 15%. The following Table 6 indicates the IC50 values (IC50 [μg/ml] is the concentration of the test substance per ml which is necessary for 50% inhibition) from these investigations.

In assay [3] the test system is bronchial carcinoma cells, A 549. The assay is described as follows: MTT assay, inhibition of cell proliferation, A 549. It is filed as cell-based. The conditions noted are these: Homo sapiens, A549; 72 hours incubation. On the procedure: as §1
A general note: Tetrazolium assays rely on reduction of a dye to a coloured formazan, in cell work by metabolically active cells.

As a reminder, the IC50 is the concentration needed to halve the response being measured. The low end stands for higher potency, the high end for lower potency.

With `CN(C(=O)c1cnc(N2CC(C)(C)NC2=O)nc1N)c1cccc(C(F)(F)F)c1.Cl` [Compound I as hydrochloride, 4-amino-2-(4,4-dimethyl-2-oxo-1-imidazolidinyl)pyrimidine-5-carboxylic acid N-methyl-N-(3-trifluoromethylphenyl)amide hydrochloride], the “Influence on HMG-CoA reductase enzyme activity compared with control incubations” value in assay [1] is “does not influence”. Further, the half-inhibitory concentration (IC50) in assay [2] and in assay [3] was more than 100 µg/mL each time.

(Values after patent US5795899A, “Soluble salts of 4-amino-2-(4,4-dimethylimidazolidin-2-on-1-yl) pyrimidine-5-carboxylic acid N-methyl-N-(3-trifluoromethylphenyl)-amide, a process for the preparation thereof, the use thereof as pharmaceuticals and starting materials” (Hoechst Aktiengesellschaft, priority 1992, dated 1998).)
